Experimental data as given in patent publication US20150004636A1, “NEURONAL BIOSENSOR FOR DETECTION OF TOXINS” (priority 2011, published 2015).
Read-outs that look alike come from different tables or passages of the source.

What was measured:
Assay type in all cases: cell-based, chick
[1] = system: DRG neurons
Experimental: For microscopy experiments, holes were drilled in the bottom of 35 mm tissue culture dishes with a 7/32″ drill bit and drill press. Etching was performed on 12 mm round glass coverslips that were submerged in 300 ml of boiling 18 MΩ H2O containing 7.5 g Alconox detergent for 30 minutes. The coverslips were then rinsed with 18MΩ H2O and dried in a 150 mm Petri dish in a laminar flow hood. A section of Tygon tubing (0.5 inch long, 0.5 inch inner diameter, and 0.75 inch outer diameter) was used to apply Dow Corning 732 multi-purpose sealant to the bottom of the tissue culture dishes just around the hole that was drilled previously. Forceps were used to press one round glass coverslip to the bottom of each tissue culture dish until a continuous seal was formed around the hole. The tissue culture dishes were laid in a fume hood to dry. Exposure to ultraviolet light for at least an hour or treatment with ethanol for approximately 30 seconds was used to sterilize the dishes. Type VII collagen, to promote cell adhesion to the glass coverslip, was added to each dish for coating and allowed to air dry in the laminar flow hood to maintain sterility. Once the dishes were dry, the lids were placed back on the dishes and the edges of the Petri dishes were then wrapped in Parafilm and stored in a 4° C. refrigerator before use.
Focusing on the FM® dye, the dye was thawed at room temperature and vortexed. A 30 μM FM® dye solution was made with 1×HBSS. The solution was heated to 37° C. and vortexed just before each cell staining experiment. The cells were exposed to the FM® dye solution for 5-10 min before imaging.
The media was removed from the 35 mm tissue culture dish using a micropipette. The surface was then rinsed once with 1 ml HBSS. […]
DRG neurons stained with FM® 4-64 were imaged before exposure to 100 μM ionomycin. […] Over the 10 min of imaging, the samples were moving out of focus and the focus was readjusted intermittently for more consistent images. […]

[2] = system: dorsal root ganglia (DRG) neurons
Experimental: The eggs were incubated for 10 days before dissection in a dark egg incubator with motion at a dry temperature of 86-100° F. and wet temperature of 84-86° F. From the ventral side, the spines of the embryos were exposed, the kidneys were removed one at a time under higher dissecting power carefully so as not to remove the nerve chains situated just below the kidney along the ventral side of the spinal cord. The DRGs were each dissected from the area between the bottom of the ribs and the posterior end of the embryo, placed in a tissue culture dish containing F12 media. DRGs from 12 embryos were transferred with a fire-polished Louis Pasteur pipette to a sterile 15 ml tube. After the DRGs settled to the bottom of the tube, a pipette was used to carefully remove the F12 media, avoiding removal of any DRGs. Ten mLs of 5% trypsin were added to the tube with DRGs, mixed, and incubated for 30 minutes in a 37° C. water bath. Every 10 minutes of incubation the tube was removed from the water bath and tapped to mix the DRGs and allow the trypsin to digest connective tissue to separate the neurons. After incubation, trypsin was removed using a pipette. The cells were rinsed with 2 ml of Neurobasal media 2-3 times by adding media, allowing the DRGs to settle to the bottom of the tube before removing the media, and adding another 2 ml of media. After the final rinse, the volume was brought up to 1 ml and the dissociated neurons were triturated with a medium-sized, then a small-sized, fire-polished Louis Pasteur pipette until the cell solution appeared cloudy and no individual DRGs were present in the media. A small amount of the solution was transferred to a hemocytometer and the single cells were counted. The cell solution was diluted so that 10-15×10^4 cells were added to an Alconox® treated, 0.1 mg/ml collagen coated, 25 mm diameter round glass coverslip in a 35 mm dish with 2 ml of Neurobasal media. The DRGs were incubated in 5% CO2 at 37° C. for 2-3 days before experimentation. Approximately 1 mL of media was replaced with new media every other day until experiments began.
Experiments began 2-3 days after neurons were plated. A dish of neurons was washed with 1×HBSS then 1×HBSS+1 mg/ml bovine serum albumin (BSA) before the cells were bathed in 4 μM Fura-2AM in 1×HBSS+BSA for incubation for 45 min at 37° C. in 5% CO2. The cells were washed 4× with 1×HBSS and incubated for another 20-60 min in 1×HBSS. A coverslip containing the neurons was removed after the final wash and placed in an apparatus for calcium imaging.
All toxins including nicotine, boric acid, ionomycin, glutamate, and glycine were prepared in 1×HBSS according to their final concentrations (Table 3).
The coverslip containing the neurons was placed in a perfusion apparatus onto an Olympus IX70 microscope equipped with a 20× fluorescence objective, a Mercury lamp and filter sets that optimized the Fura-2 excitation ([…]) and emission wavelengths (510 nm). The cells were bathed continuously by perfusion of solutions at ˜4.7 mL/min. The cells were bathed with 1×HBSS during software setup and for resting Ca^2+ measurements before exposure to stimulating or toxic solutions. InCyt Im2™ software was used to measure the emission intensities and convert to Ca^2+ concentrations. Only designated areas of each neuron soma were chosen for measurements. Calibration curves were generated for conversion of light intensity emitted per excitation wavelength using standard Ca^2+ solutions in the free acid form of Fura-2 to convert emitted light intensity to Ca^2+ concentration. Each experiment began with 3 min wash with HBSS to establish resting intracellular Ca^2+ measurements. Depending on the toxin used, the neurons were then exposed to a flow of toxic/stimulating solution for 5-10 min. Each experiment ended with a 1 min. wash of HBSS to determine reversal or change of the stimulating/toxic solution. […]

[3] = system: DRG neurons; remark: listed apart in the source
[4] = system: DRG neurons; assay: Fluorescence spectroscopy of FM 4-64 labeled DRG neurons
Experimental: For spectroscopy experiments, DRG neurons were grown on 11×22 mm plastic coverslips that were treated with Alconox and coated with Type VII rat tail collagen, using the same methods that were mentioned previously. Cells were plated with ˜15×10^4 cells in each 35 mm tissue culture dish containing one plastic coverslip. The cells were incubated in 5% CO2 at 37° C. for 2 days before experiments began.
Before scanning the cell samples, the coverslip was mounted into a coverglass holder and was held inside a cuvette at a 45° angle from the light source and the photo detector. The coverglass holder was placed in a cuvette containing 1×HBSS to rinse the media from the cells prior to the experiments. For the spectroscopy experiments, the coverglass holder was placed in the cuvette that was filled with either 1×HBSS or stimulating solutions. The orientation of the coverglass in the cuvette was situated so that the cell surface was facing the light source and photodetector, both at 45° angles. For experiments using FM® 4-64, scan were conducted using a HORIBA Jobin Yvon FluoroLog®-3 spectrofluorometer with an excitation wavelength of 558 nm and an emission range was detected from 566 to 750 nm. The slit width for excitation and emission was 3 nm and data was collected every 0.2 sec, once for each wavelength. Fluorescence intensity was detected in counts per second (cps). The data was transferred into MS Excel and analyzed using Matlab.
In Matlab, the maximum intensity of each scan was found for the emission wavelength range of interest and the ratio of the maximum emission intensities was taken between non-labeled, non-stimulated cells and FM®-labeled cells before and after stimulation. This ratio was used to determine the difference in fluorescence, and therefore the amount of stained membranes present in the sample before and after stimulation with ionomycin.
To determine whether a change in fluorescence of FM®-labeled neurons could be measured, the cells were stained and stimulated using the same methods mentioned above. Four emission scans were performed: a control scan of the non-labeled neurons in HBSS, a scan of the FM®-labeled neurons in HBSS, a scan of the FM® labeled neurons in ionomycin 5 min after initial stimulation, and a scan of the post stimulated, FM®-labeled neurons in 1×HBSS wash. The cells were rinsed with warm 1×HBSS before each scan, and the cells were stimulated for a total of 10 min before rinsed with 1×HBSS for the fourth scan. The ratio of fluorescence intensities of non-labeled neurons to FM®-labeled neurons, FM®-labeled ionomycin-stimulated neurons, and FM®-labeled ionomycin-stimulated rinsed neurons in Table 5.

[5] = 10 min, 50 mM boric acid, 500 μM glutamate or 100 μM nicotine
[6] = FM-labeled neurons after 10 min ionomycin stimulation, rinsed in 1×HBSS
[7] = FM-labeled neurons, 5 min in ionomycin

In the case of `CCN(CC)c1ccc(/C=C/C=C/C=C/c2cc[n+](CCC[N+](CC)(CC)CC)cc2)cc1.[Br-].[Br-]` [FM® 4-64], the “staining of DRG neuron membranes” value ([1]; 30 μM FM 4-64 in 1×HBSS) is reported as “complete staining of the cell membranes around the soma and axons”.
For `[Cl-].[K+]` [KCl, potassium chloride], the “mean intracellular Ca2+ concentration during stimulation” value ([2]; 50 mM KCl, n=104) was 511 nM, the “migration of FM 4-64 dye in stained neurons” value (“migration of FM 4-64 dye” below) ([3]; 50 mM KCl, 10 min after addition) was “some migration of FM® dye throughout the DRG neurons” and the “cell morphology in phase images during stimulation” value ([3]; 50 mM KCl, 10 min of stimulation) was “some swelling in small parts of axons”.
In the case of `OB(O)O` [boric acid], the “change of intracellular Ca2+ compared to resting” value (from here on “change of intracellular Ca2+”) [2] is reported as “slight, but significant, decrease”, the “mean intracellular Ca2+ concentration during stimulation” value [2] is reported as 58 nM and the “axon morphology after stimulation” value [3] is reported as “swollen axons”. The “differences in membrane structure before vs after treatment” value [3] was “very little differences to no differences” and the “migration of FM 4-64 dye” value [3] was “no migration of FM® 4-64 throughout the cells”.
`N[C@@H](CCC(=O)O)C(=O)O` [glutamate] was tested, and the “percent of cells that responded with an increase of intracellular Ca2+” value (“percent … with an increase of intracellular Ca2+” for short) ([2]; 100 μM glutamate) was 21%, the “percent of cells without obvious increase of intracellular Ca2+ (non-responding)” value ([2]; 100 μM glutamate) was 79% and the “average intracellular Ca2+ concentration, responding cells” value ([2]; 100 μM glutamate, n=27, resting 68.7 nM) was 301 nM. The “average intracellular Ca2+ concentration, non-responding cells” value ([2]; 100 μM glutamate, n=100, resting 67 nM) was 71 nM, the “percent … with an increase of intracellular Ca2+” value ([2]; 500 μM glutamate) was 34% and the “percent of cells without obvious increase of intracellular Ca2+ (non-responding)” value ([2]; 500 μM glutamate) was 66%. The “average intracellular Ca2+ concentration, responding cells” value ([2]; 500 μM glutamate, n=75, resting 82) was 352 nM, the “average intracellular Ca2+ concentration, non-responding cells” value ([2]; 500 μM glutamate, n=146, resting 84 nM) was 88 nM and the “percent … with an increase of intracellular Ca2+” value ([2]; 1 mM glutamate) was 15%. The “percent of cells without obvious increase of intracellular Ca2+ (non-responding)” value ([2]; 1 mM glutamate) was 85%, the “average intracellular Ca2+ concentration, non-responding cells” value ([2]; 1 mM glutamate, n=38, resting 79 nM) was 87 nM and the “axon morphology after stimulation” value [3, 5] was “swollen axons”. For the same molecule, the “migration of FM 4-64 dye” value [3, 5] was “no migration of FM® 4-64 throughout the cells”.
With `C[C@H](CCC(=O)O)C[C@H](C)C[C@H](C)C(=O)/C=C(\O)[C@H](C)C[C@H](C)C/C=C/[C@@H](C)[C@@H](O)[C@@H](C)[C@@H](O)C[C@@H]1CC[C@@](C)([C@H]2CC[C@@](C)([C@@H](C)O)O2)O1` [ionomycin] the “Fluorescence Intensity at 667 nm” value [4, 6] was 2238 cps, the “Fluorescence Intensity at Peak Emission Wavelength” value [4, 6] was 2362 cps and the “Peak Emission Wavelength” value [4, 6] was 676 nm. For the same molecule, the “Fluorescence Intensity at 667 nm” value [4, 7] was 3303 cps, the “Fluorescence Intensity at Peak Emission Wavelength” value [4, 7] was 3719 cps and the “Peak Emission Wavelength” value [4, 7] was 684 nm. For the same molecule, the “Ratio of Fluorescence Intensities at 667 nm” value ([4]; FM-labeled neurons, 5 min in ionomycin vs non-labeled neurons) was 2.05, the “Ratio of Fluorescence Intensities at 667 nm” value ([4]; after 10 min ionomycin stimulation, rinsed in 1×HBSS vs non-labeled neurons) was 1.39 and the “mean intracellular Ca2+ concentration during stimulation” value ([2]; ~100 μM ionomycin, highest time points averaged, n=228) was 988 nM. The “change of intracellular Ca2+” value ([2]; ~100 μM ionomycin, positive control) was “large and irreversible”, the “cell morphology in phase images during stimulation” value ([1]; 100 μM ionomycin, up to 10 min) was “shrinkage of the cell soma” and the “migration of FM 4-64 dye” value ([1]; 100 μM ionomycin, within the first 25 sec of stimulation) was “migrated from the membranes of the axons into the soma”.
With `CN1CCCC1c1cccnc1` (stereo not shown) [nicotine] the “change of intracellular Ca2+” value [2] was “only a few cells experiencing an increase in intracellular Ca^2+”, the “axon morphology after stimulation” value [3] was “swollen axons” and the “migration of FM 4-64 dye” value [3] was “no migration of FM® 4-64 throughout the cells”.
